Measured values: patent US11603552B2 (priority 2020, dated 2023)
Entries after “also recorded” stand apart in the source; their conditions may differ.

Key:
human UCH-L3 = human UCH-L3 (Homo sapiens, UniProt P15374); type: biochemical
SARS PLpro = type: biochemical
MERS PLpro = MERS PLpro (Middle East respiratory syndrome-related coronavirus, UniProt K9N7C7)
SARS-1 = details: cited from earlier work
MERS = details: cited from earlier work
PLpro from SARS-CoV-2 = PLpro from SARS-CoV-2 (Severe acute respiratory syndrome coronavirus 2, UniProt P0DTD1)
PLpro from SARS-CoV-1 = PLpro from SARS-CoV-1 (Severe acute respiratory syndrome coronavirus, UniProt P0C6X7)
[1] = molecular target: SARS-1 papain-like protease (recombinant) (Severe acute respiratory syndrome coronavirus, UniProt P0C6X7)
SARS-2 = details: cited from earlier work
[2] = molecular target: SARS-2 papain-like protease (recombinant) (Severe acute respiratory syndrome coronavirus 2, UniProt P0DTD1)
[3] = molecular target: MERS papain-like protease (recombinant) (Middle East respiratory syndrome-related coronavirus, UniProt K9N7C7)
Chain of MERS papain-like protease (recombinant) (K9N7C7 1552-1823 limits assumed): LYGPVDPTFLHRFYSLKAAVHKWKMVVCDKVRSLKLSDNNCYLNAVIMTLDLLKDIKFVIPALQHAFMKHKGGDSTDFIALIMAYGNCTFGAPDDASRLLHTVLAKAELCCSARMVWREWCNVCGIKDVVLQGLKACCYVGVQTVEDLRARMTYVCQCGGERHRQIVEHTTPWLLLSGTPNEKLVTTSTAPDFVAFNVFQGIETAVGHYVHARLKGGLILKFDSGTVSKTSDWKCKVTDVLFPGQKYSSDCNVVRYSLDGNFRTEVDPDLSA

[4] = test system: human cells infected with NL63 coronavirus; type: cell-based; details: NL63, viral enzyme, in vivo (infected human cell lysate), after 15 minutes of incubation
NL63 PLP2 (recombinant) = NL63 PLP2 (recombinant) (Human coronavirus NL63, UniProt P0C6X5); type: biochemical; design: cleavage of papain-like protease substrate: key to the marks not given beside the values
Chain of NL63 PLP2 (recombinant) (P0C6X5 1640-1886 limits assumed): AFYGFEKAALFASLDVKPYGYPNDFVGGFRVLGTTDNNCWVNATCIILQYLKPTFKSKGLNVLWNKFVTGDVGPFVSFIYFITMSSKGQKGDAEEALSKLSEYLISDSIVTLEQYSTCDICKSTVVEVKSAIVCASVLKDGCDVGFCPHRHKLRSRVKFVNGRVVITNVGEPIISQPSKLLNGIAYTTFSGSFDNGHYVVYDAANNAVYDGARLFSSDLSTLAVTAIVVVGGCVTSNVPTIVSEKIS

[5] = test system: human cells infected with OC43 coronavirus; type: cell-based
[6] = test system: endogenous enzymes present in crude tongue scrape lysate; type: biochemical, human

Chain of MERS PLpro (K9N7C7 1552-1823 limits assumed): as the sequence (K9N7C7 1552-1823 limits assumed) above
Chain of human UCH-L3 (P15374 whole entry, looked up): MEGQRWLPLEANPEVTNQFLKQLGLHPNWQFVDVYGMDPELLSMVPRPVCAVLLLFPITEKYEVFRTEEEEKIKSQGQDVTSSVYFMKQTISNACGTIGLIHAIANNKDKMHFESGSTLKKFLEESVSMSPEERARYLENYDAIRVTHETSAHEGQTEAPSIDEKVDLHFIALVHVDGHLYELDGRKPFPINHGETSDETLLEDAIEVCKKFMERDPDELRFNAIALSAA

Substance: hTyr-Dap-G-G (SEQ ID NO. 13)
- recognition of the substrate (human UCH-L3): do not recognize

Substance: Ac-Abu(Bth)-Dap-G-G (SEQ ID NO. 9)
- specific cleavage by SARS PLpro (not by MERS PLpro or human deubiquitylating enzymes) (SARS PLpro): specifically cleaved

Substance: Ubiquitin
- cleavage of substrate (qualitative) (MERS PLpro): cleave
- Catalytic rate (Kcat) (SARS-1): 0.167 s⁻¹
- Catalytic rate (Kcat) (MERS): 0.313 s⁻¹
- cleavage of substrate (qualitative) (PLpro from SARS-CoV-2): cleave
- cleavage of substrate (qualitative) (PLpro from SARS-CoV-1): cleave
- cleavage of papain-like protease substrate [1]: ++
- Catalytic rate (Kcat) (SARS-2): 1.26 s⁻¹
- cleavage of papain-like protease substrate [2]: ++
- cleavage of papain-like protease substrate [3]: ++
- cleavage, percent fluorescence increase relative to uninfected cells [4]: 24%^1
- cleavage of papain-like protease substrate (NL63 PLP2 (recombinant)): +++
- times more efficiently cleaved than ISG15 (NL63 PLP2 (recombinant)): 2.5 times
- times more efficiently cleaved than the tetrapeptide (NL63 PLP2 (recombinant)): 120 times

Substance: Ac-hPhe-Dap-G-G (SEQ ID NO. 12)
- specific cleavage by SARS PLpro (not by MERS PLpro or human deubiquitylating enzymes) (SARS PLpro): specifically cleaved

Substance: Ac-hTyr-Phe(guan)-G-G (SEQ ID NO. 10)
- specific cleavage by SARS PLpro (not by MERS PLpro or human deubiquitylating enzymes) (SARS PLpro): specifically cleaved

Substance: Tyr-Dap-G-G (SEQ ID NO. 4)
- cleavage, percent fluorescence increase relative to uninfected cells [5]: 34%^3
- cleavage of papain-like protease substrate [1]: ++
- cleavage of papain-like protease substrate [2]: +
- cleavage by endogenous enzymes present in lysate [6]: is not cleaved

Substance: Ac-Tyr-Dap-G-G (SEQ ID NO. 11)
- specific cleavage by SARS PLpro (not by MERS PLpro or human deubiquitylating enzymes) (SARS PLpro): specifically cleaved

Substance: L-R-G-G (SEQ ID NO. 1)
- cleavage of substrate (qualitative) (MERS PLpro): cleave
- Catalytic rate (Kcat) (SARS-1): 8.5e-05 s⁻¹
- Catalytic rate (Kcat) (MERS): 5e-05 s⁻¹
- cleavage of substrate (qualitative) (PLpro from SARS-CoV-2): cleave
- cleavage, percent fluorescence increase relative to uninfected cells [5]: 22%^2
- cleavage of substrate (qualitative) (PLpro from SARS-CoV-1): cleave
- cleavage of papain-like protease substrate [1]: +
- Catalytic rate (Kcat) (SARS-2): 0.005 s⁻¹
- cleavage of papain-like protease substrate [2]: +
- cleavage of papain-like protease substrate [3]: +
- cleavage by endogenous enzymes present in lysate [6]: is cleaved; also recorded: slight fluorescence increases
